This is an account of results in US5618560A, “Controlled release erodible composition” (BM Research A/S, priority 1988, dated 1997).

The nature of the series: clinical. Details: species or system patients (human). Conditions: human, in vivo, iv, 5 mg/kg, Serum half-life.

Procedure: The in vivo release of theophylline from this composition was tested in six patients, 3 males and 3 females, aged 18-42 years (mean age 30 years), weighing from 63 to 85 kg (mean weight 66 kg), all of whom were diagnosed as having bronchial asthma.
The first dose was given to the patients before breakfast (i.e. in the fasting state) as two units of the composition (340 mg theophylline) together with 100 ml of liquid. […] Following the oral dose, venous blood samples were drawn at 0, 1, 2, 3, 4, 6, 8, 10, 12, 14, 16 and 24 hours. Serum samples were drawn at 0, 15 min., 30 min., 60 min., 90 min., and 2, 3, 5, 7, 9 and 11 hours after the i.v. dose. The serum portion of the blood specimen was immediately frozen at -20° C. and kept frozen until analyzed 2 weeks later. The amount of theophylline in the serum was assayed by HPLC with an accuracy of ±5%.

The compound `Cn1c(=O)c2[nH]cnc2n(C)c1=O` [theophylline] showed a half-life of 6 h.

What is called half-life is the time needed for the level to fall by half in the phase considered. Lower therefore signals fast loss.
